We go through two compounds from US8003630B2, “Combinatorial therapies for the treatment of neoplasias using the opioid growth factor receptor” (The Penn State Research Foundation, priority 2004, dated 2011).

Data set [1] has as its target T1, OGFr (Homo sapiens, UniProt Q9NZT2).
T1 construct: Tumor tissues from some mice in each treatment group were removed at the time of death; from tissue; host or cells: SCC-1 squamous cell carcinoma xenograft tumors grown subcutaneously in nude mice
T1 sequence (Q9NZT2 1-677): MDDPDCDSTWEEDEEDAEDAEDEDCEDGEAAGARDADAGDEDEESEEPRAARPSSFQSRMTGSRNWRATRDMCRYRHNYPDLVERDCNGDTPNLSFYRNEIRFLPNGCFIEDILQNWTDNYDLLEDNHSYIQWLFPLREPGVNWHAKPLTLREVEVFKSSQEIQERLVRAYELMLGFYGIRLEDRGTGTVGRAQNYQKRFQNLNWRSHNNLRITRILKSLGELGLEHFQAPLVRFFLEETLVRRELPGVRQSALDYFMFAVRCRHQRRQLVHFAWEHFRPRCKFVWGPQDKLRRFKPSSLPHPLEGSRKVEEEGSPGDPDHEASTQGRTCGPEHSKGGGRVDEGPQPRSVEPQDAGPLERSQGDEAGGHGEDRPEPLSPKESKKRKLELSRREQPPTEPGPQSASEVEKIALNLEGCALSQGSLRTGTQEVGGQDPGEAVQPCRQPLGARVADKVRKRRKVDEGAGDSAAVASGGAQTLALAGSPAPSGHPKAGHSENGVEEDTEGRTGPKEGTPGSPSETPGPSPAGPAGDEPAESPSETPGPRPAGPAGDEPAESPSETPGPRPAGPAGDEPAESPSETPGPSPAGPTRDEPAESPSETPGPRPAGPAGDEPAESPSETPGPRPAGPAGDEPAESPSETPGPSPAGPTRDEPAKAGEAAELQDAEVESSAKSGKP
The data set can be described thus: Receptor binding analysis of OGFr in SCC-1 tumors from treated mice. The conditions noted are these: OGFr in SCC-1 tumors from mice of the treatment group; means ± SEM. As to the method: Tumor tissues from some mice in each treatment group were removed at the time of death, washed free of blood and connective tissue, and immediately frozen in liquid nitrogen. Tissues were assayed following the procedures published previously [ 16]. Saturation binding isotherms were generated using GraphPad Prism software; binding affinity (Kd) and capacity (Bmax) values were provided by the computer software.

Data set [2] can be described thus: Plasma levels of OGF by radioimmunoassay, SCC-1 tumor mice. The data set is classed as in vivo, nude mice. The conditions noted are these: at termination. The method, then:
Plasma samples were assayed in duplicate.

For data set [3], the system named is SCC-1 SCCHN cells. To be noted: athymic nude, mouse, in vivo.
Description: Tumor dimensions were recorded every day beginning on the day that the tumors were considered measurable.
Data set [4] deals with SCC-1 cells. The data set can be described thus: Growth curves of SCC-1 cells, cell proliferation (MTT) assay, absorbency.
Excerpt: (§3) Cells were counted using a standard MTT assay. In general, each data point represents the average absorbency taken from 10 wells/treatment; error bars represent the S.E.M.
Data set [5] relates to MiaPaCa-2 cells. The data set can be described thus: OGF/gemcitabine treatment in athymic nude mouse model (Example 5). Format: in vivo, athymic nude mice.
Excerpt: To examine the effectiveness of the combined OGF/gemcitabine treatments in vivo, an athymic nude mouse model was used.
In data set [6] the test system is MIA PaCa-2 cells. The data set can be described thus: Growth assays of MIA PaCa-2 cells (MTS assay or cell counting), Example 7. Format: cell-based, human. To be noted: MIA PaCa-2; 96 hr (48 hr after reversal). As to the method: (§1) MIA PaCa-2 and PANC-1 human pancreatic adenocarcinoma cell lines were purchased from the American Type Culture Collection (Manasass, Va.). MIA PaCa-2 cells were derived from an undifferentiated epithelial carcinoma occurring in the body and tail of the pancreas in a person. The PANC-1 cells were derived from an undifferentiated carcinoma from the head of the pancreas in a person. MIA PaCa-2 and PANC-1 cells were grown in Dulbecco's MEM (modified) media; media was supplemented with 10% fetal calf serum, 1.2% sodium bicarbonate, and antibiotics (5,000 Units/ml penicillin, 5 mg/ml streptomycin, 10 mg/ml neomycin), and the cells were maintained in a humidified atmosphere of 7% CO2/93% air at 37° C.
MIA PaCa-2 cells were seeded at equivalent amounts into either 75 cm^2 flasks, 6-well plates, or 96-well plates (Falcon) and counted 24 hr later to determine plating efficiency. Growth assays for PANC-1 cells were conducted in 6-well plates (Falcon). Compounds or sterile water were added beginning 24 hr after seeding (=0 hr), and both media and compounds were replaced daily. All drugs were prepared in sterile water and dilutions represent final concentrations of the compounds.
(§2) Cell number was recorded either by using a mitogenic bioassay, the MTS assay (Cell Titer 96 One Solution, Promega, Madison, Wis.), and measuring absorbency after 4 hr on a Biorad (Model 3550) plate reader at 490 nm, or by counting cells. For manual counts, cells were harvested with a solution of 0.25% trypsin/0.53 mM EDTA, centrif uiged, and counted with a hemacytometer. Cell viability was determined by trypan blue staining. At least two aliquots per flask or 4-10 wells/treatment were counted at each time.

Data set [7] concerns PANC-1 cells. The data set can be described thus: Growth assay of PANC-1 cells in 6-well plates. The data set is classed as cell-based, human. The conditions noted are these: 72 hr, OGF 10^−6 M and/or gemcitabine 10^−8 M. The method, then:
as §1
MIA PaCa-2 cells were seeded at equivalent amounts into either 75 cm^2 flasks, 6-well plates, or 96-well plates (Falcon) and counted 24 hr later to determine plating efficiency. […]
as §2

In data set [8] the test system is advanced unresectable pancreatic adenocarcinoma. The conditions noted are these: some patients; cited from earlier work.
Data set [9] concerns MiaPaCa-2 cells. The data set can be described thus: Growth curves of MiaPaCa-2 cells, cell proliferation (MTT) assay, absorbency. The conditions noted are these: MiaPaCa-2, 5-FU 10^-5 M and/or OGF 10^−6 M.
Excerpt: as §3
Where [10] appears, read: 48 h, paclitaxel 10^−7 M and/or OGF 10^−6 M.
[11] abbreviates: 72 h, paclitaxel 10^−7 M and/or OGF 10^−6 M.
The mark [12] stands for this setting: 96 h, paclitaxel 10^−7 M and/or OGF 10^−6 M.

Take `CC(=O)O[C@H]1C(=O)[C@@]2(C)[C@H]([C@H](OC(=O)c3ccccc3)[C@]3(O)C[C@H](OC(=O)[C@H](O)[C@@H](NC(=O)c4ccccc4)c4ccccc4)C(C)=C1C3(C)C)[C@]1(OC(C)=O)CO[C@@H]1C[C@@H]2O` [paclitaxel]: the “Bmax, fmol/mg protein” value in [1] came out at 27.8 ± 1.6 fmol/mg protein. The “OGF levels in plasma versus control mice with tumors” value in data set [2] is recorded as “No differences”. Further, the “mice still alive on termination day, % of the group” value in data set [3] (50 day) turned out to be 8%. The “day on which mice began dying” value in [3] (50 days) came out at 19 days. Also, the “decrease in cell number from control levels” value is reported as 14.2% in data set [4] (24 h, paclitaxel 10^−7 M and/or OGF 10^−6 M); 34.4% in data set [4] (setting [10]); 58% in data set [4] (setting [11]); 70% in data set [4] (setting [12]); 19.3% in data set [4] (96 h, paclitaxel 10^−8 M alone or with OGF 10^−6 M).

As for [Met^5]-enkephalin [OGF], the mice with tumors result in data set [5] (day 16 after tumor cell inoculation) is reported as “all mice”. Also, the “tumors smaller than control mice, reduction” value in data set [5] (from the 6th timepoint (12th day of measurable tumor)) is reported as 29.9-40.7%. The “difference in cell number between reversal group and group continuing drug exposure” value in data set [6] came to 16%. Also, the “fewer cells than in control cultures” value in [7] is on record as 31%. Further, the “Bmax, fmol/mg protein” value in [1] is recorded as 27.2 ± 2.2 fmol/mg protein. Also, in data set [8], the “longest survival of patients” value is on record as ≤ 23 months. The results for the “decrease in cell number from control levels” value in [4] (setting [10]), in [4] (setting [11]) and in [4] (setting [12]) were 11.9%, 6.7% and 12.7%, respectively. Also, the “decrease in cell number from controls” value in data set [9] (24 h) is 7.1%; in data set [9] (48 h), 7.0%; in [9] (72 h), 6.9%; in data set [9] (96 h), 14.2%.
